Reference: patent US10821115B2, “Compounds that inhibit Mcl-1 protein” (priority 2017, dated 2020)
Where two headings read alike, the source gives them in different places.

Assays:
[1] = tested on: human multiple myeloma cell line, OPM-2; test: Cell viability assay (OPM-2 10 FBS), CellTiter-Glo; type: cell-based
Procedure, shortened: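 3000 cells/well, RPMI 1640 + 10% FBS; serial compound dilutions, 16 h, 37 °C/5% CO2.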

[2] = biological target: recombinant human Mcl-1 (residues 171-327) / Bim interaction (Homo sapiens (Human), UniProt Q07820); test: biochemical; type: binding; conditions: TR-FRET, Mcl-1(171-327) / biotin-Bim (51-76); read-out: Mcl-1 HTRF IC50
[3] = read-out: OPM-2 10% FBS IC50 IP, OPM-2 cells, 10% FBS, 16 h, CellTiter-Glo
[4] = Homo sapiens, OPM-2, 16 h, read-out: OPM-2 10% FBS IC50 IP, OPM-2 cells, 10% FBS, 16 h, CellTiter-Glo

Chain of recombinant human Mcl-1 (residues 171-327) / Bim interaction (Q07820 171-327): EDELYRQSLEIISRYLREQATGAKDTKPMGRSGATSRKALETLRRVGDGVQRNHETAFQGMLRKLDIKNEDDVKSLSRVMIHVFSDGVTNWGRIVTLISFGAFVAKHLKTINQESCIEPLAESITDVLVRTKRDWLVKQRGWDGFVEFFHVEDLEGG

SMILES	IC50 [1, 3] [nM]	IC50 [2] [nM]	IC50 [1, 4] [nM]
C[C@@H]1[C@@H](C)C/C=C/[C@](O)(c2cccnc2F)[C@@H]2CC[C@H]2CN2C[C@@]3(CCCc4cc(Cl)ccc43)COc3ccc(cc32)C(=O)NS1(=O)=O (single isomer, unassigned) [Example 100314]	2290	2.93	–
CO[C@@]1(CC(=O)N2CC[C@@H](N(C)C)C2)/C=C/C[C@H](C)[C@@H](C)S(=O)(=O)NC(=O)c2ccc3c(c2)N(C[C@@H]2CC[C@H]21)C[C@@]1(CCCc2cc(Cl)ccc21)CO3 (single isomer, unassigned) [Example 100318]	–	0.095	114
C[C@@H]1[C@@H](C)CCC[C@](O)(Cc2ccccc2)[C@@H]2CC[C@H]2CN2C[C@@]3(CCCc4cc(Cl)ccc43)COc3ccc(cc32)C(=O)NS1(=O)=O (single isomer, unassigned) [Example 100319]	–	0.126	506
COc1ncccc1[C@@]1(O)/C=C/C[C@H](C)[C@@H](C)S(=O)(=O)NC(=O)c2ccc3c(c2)N(C[C@@H]2CC[C@H]21)C[C@@]1(CCCc2cc(Cl)ccc21)CO3 (single isomer, unassigned) [Example 100333]	–	2.1	2170
COc1ncccc1[C@@]1(O)/C=C/C[C@H](C)[C@@H](C)S(=O)(=O)NC(=O)c2ccc3c(c2)N(C[C@@H]2CC[C@H]21)C[C@@]1(CCCc2cc(Cl)ccc21)CO3 (single isomer, unassigned) [Example 100334]	1470	3.27	–
CO[C@@]1(c2cccc(F)n2)/C=C/C[C@H](C)[C@@H](C)S(=O)(=O)NC(=O)c2ccc3c(c2)N(C[C@@H]2CC[C@H]21)C[C@@]1(CCCc2cc(Cl)ccc21)CO3 (single isomer, unassigned) [Example 100339]	–	0.186	1380
C[C@@H]1[C@@H](C)C/C=C/[C@@](O)(c2cccnn2)[C@@H]2CC[C@H]2CN2C[C@@]3(CCCc4cc(Cl)ccc43)COc3ccc(cc32)C(=O)NS1(=O)=O (single isomer, unassigned) [Example 100348]	–	0.135	125
C[C@@H]1[C@@H](C)C/C=C/[C@@](O)(c2ccncn2)[C@@H]2CC[C@H]2CN2C[C@@]3(CCCc4cc(Cl)ccc43)COc3ccc(cc32)C(=O)NS1(=O)=O (single isomer, unassigned) [Example 100360]	–	0.848	1230
COc1ccc([C@@]2(O)/C=C/C[C@H](C)[C@@H](C)S(=O)(=O)NC(=O)c3ccc4c(c3)N(C[C@@H]3CC[C@H]32)C[C@@]2(CCCc3cc(Cl)ccc32)CO4)cn1 (single isomer, unassigned) [Example 100362]	–	0.888	2100
CO[C@@]1(C[C@@H](O)C(C)C)/C=C/C[C@H](C)[C@@H](C)S(=O)(=O)NC(=O)c2ccc3c(c2)N(C[C@@H]2CC[C@H]21)C[C@@]1(CCCc2cc(Cl)ccc21)CO3 (single isomer, unassigned) [Example 100366]	168	0.198	–
CO[C@@]1(C[C@@H](O)C(C)C)/C=C/C[C@H](C)[C@@H](C)S(=O)(=O)NC(=O)c2ccc3c(c2)N(C[C@@H]2CC[C@H]21)C[C@@]1(CCCc2cc(Cl)ccc21)CO3 (single isomer, unassigned) [Example 100367]	604	0.371	–
C[C@@H]1[C@@H](C)C/C=C/[C@@](O)(c2ccncc2F)[C@@H]2CC[C@H]2CN2C[C@@]3(CCCc4cc(Cl)ccc43)COc3ccc(cc32)C(=O)NS1(=O)=O (single isomer, unassigned) [Example 100370]	–	0.153	258
CO[C@@]1(c2cnccn2)/C=C/C[C@H](C)[C@@H](C)S(=O)(=O)NC(=O)c2ccc3c(c2)N(C[C@@H]2CC[C@H]21)C[C@@]1(CCCc2cc(Cl)ccc21)CO3 (single isomer, unassigned) [Example 100379]	–	0.06	71
C[C@@H]1[C@@H](C)C/C=C/[C@@](O)(c2ncccc2F)[C@@H]2CC[C@H]2CN2C[C@@]3(CCCc4cc(Cl)ccc43)COc3ccc(cc32)C(=O)NS1(=O)=O (single isomer, unassigned) [Example 100390]	–	0.186	649
C[C@@H]1[C@@H](C)C/C=C/[C@@](O)(c2ccncc2)[C@@H]2CC[C@H]2CN2C[C@@]3(CCCc4cc(Cl)ccc43)COc3ccc(cc32)C(=O)NS1(=O)=O (single isomer, unassigned) [Example 100392]	–	0.112	129
C[C@@H]1[C@@H](C)CCC[C@@](O)(C[C@H]2CCCN(C)C2)[C@@H]2CC[C@H]2CN2C[C@@]3(CCCc4cc(Cl)ccc43)COc3ccc(cc32)C(=O)NS1(=O)=O (single isomer, unassigned) [Example 100398]	–	0.618	457
C[C@@H]1[C@@H](C)CCC[C@](O)(C[C@H]2CCCN(C)C2)[C@@H]2CC[C@H]2CN2C[C@@]3(CCCc4cc(Cl)ccc43)COc3ccc(cc32)C(=O)NS1(=O)=O (single isomer, unassigned) [Example 100399]	–	0.28	2810

SMILES	IC50 [1, 3] [nM]	IC50 [2] [nM]	IC50 [1, 4] [nM]
C[C@@H]1[C@@H](C)CCC[C@](O)(C[C@@H]2CCCN(C)C2)[C@@H]2CC[C@H]2CN2C[C@@]3(CCCc4cc(Cl)ccc43)COc3ccc(cc32)C(=O)NS1(=O)=O (single isomer, unassigned) [Example 100400]	–	0.838	1320
C[C@@H]1[C@@H](C)C/C=C/[C@@](O)(c2ccc(F)cn2)[C@@H]2CC[C@H]2CN2C[C@@]3(CCCc4cc(Cl)ccc43)COc3ccc(cc32)C(=O)NS1(=O)=O (single isomer, unassigned) [Example 100402]	–	0.098	133
Cc1ccc([C@]2(O)/C=C/C[C@H](C)[C@@H](C)S(=O)(=O)NC(=O)c3ccc4c(c3)N(C[C@@H]3CC[C@H]32)C[C@@]2(CCCc3cc(Cl)ccc32)CO4)cn1 (single isomer, unassigned) [Example 100408]	–	1.35	5620
C[C@@H]1[C@@H](C)C/C=C/[C@@](O)(c2cncnc2)[C@@H]2CC[C@H]2CN2C[C@@]3(CCCc4cc(Cl)ccc43)COc3ccc(cc32)C(=O)NS1(=O)=O (single isomer, unassigned) [Example 100434]	–	0.162	482
Cc1ccc([C@]2(O)/C=C/C[C@H](C)[C@@H](C)S(=O)(=O)NC(=O)c3ccc4c(c3)N(C[C@@H]3CC[C@H]32)C[C@@]2(CCCc3cc(Cl)ccc32)CO4)nc1 (single isomer, unassigned) [Example 100439]	–	0.619	2640
CO[C@@]1(C[C@@H](O)C2CC2)/C=C/C[C@H](C)[C@@H](C)S(=O)(=O)NC(=O)c2ccc3c(c2)N(C[C@@H]2CC[C@H]21)C[C@@]1(CCCc2cc(Cl)ccc21)CO3 (single isomer, unassigned) [Example 100460]	–	0.095	433
CO[C@@]1(C[C@@H](O)C2CC2)/C=C/C[C@H](C)[C@@H](C)S(=O)(=O)NC(=O)c2ccc3c(c2)N(C[C@@H]2CC[C@H]21)C[C@@]1(CCCc2cc(Cl)ccc21)CO3 (single isomer, unassigned) [Example 100461]	382	0.042	–
C[C@@H]1[C@@H](C)C/C=C/[C@@](C)(OCc2cc(F)cc(F)c2)[C@@H]2CC[C@H]2CN2C[C@@]3(CCCc4cc(Cl)ccc43)COc3ccc(cc32)C(=O)NS1(=O)=O (single isomer, unassigned) [Example 100474]	–	0.405	387
CO[C@@]1(CC(=O)[C@H](C)CN(C)C)/C=C/C[C@H](C)[C@@H](C)S(=O)(=O)NC(=O)c2ccc3c(c2)N(C[C@@H]2CC[C@H]21)C[C@@]1(CCCc2cc(Cl)ccc21)CO3 (single isomer, unassigned) [Example 100478]	–	3.47	4090
CO[C@@]1(CC(=O)N2CCN(C)C[C@H]2C)/C=C/C[C@H](C)[C@@H](C)S(=O)(=O)NC(=O)c2ccc3c(c2)N(C[C@@H]2CC[C@H]21)C[C@@]1(CCCc2cc(Cl)ccc21)CO3 (single isomer, unassigned) [Example 100479]	332	0.758	–
CO[C@@]1(CC(=O)N2CCN(C)C[C@H]2C)/C=C/C[C@H](C)[C@@H](C)S(=O)(=O)NC(=O)c2ccc3c(c2)N(C[C@@H]2CC[C@H]21)C[C@@]1(CCCc2cc(Cl)ccc21)CO3 (single isomer, unassigned) [Example 100480]	221	0.176	–
CC[C@]1(OCCN2CCOCC2)/C=C/C[C@H](C)[C@@H](C)S(=O)(=O)NC(=O)c2ccc3c(c2)N(C[C@@H]2CC[C@H]21)C[C@@]1(CCCc2cc(Cl)ccc21)CO3 (single isomer, unassigned) [Example 100481]	–	0.094	152
CO[C@@]1([C@H](C)O)CCC[C@H](C)[C@@H](C)S(=O)(=O)NC(=O)c2ccc3c(c2)N(C[C@@H]2CC[C@H]21)C[C@@]1(CCCc2cc(Cl)ccc21)CO3 (single isomer, unassigned) [Example 100482]	–	0.183	105
CO[C@@]1([C@H](C)O)/C=C/C[C@H](C)[C@@H](C)S(=O)(=O)NC(=O)c2ccc3c(c2)N(C[C@@H]2CC[C@H]21)C[C@@]1(CCCc2cc(Cl)ccc21)CO3 (single isomer, unassigned) [Example 100486]	–	0.381	102
CO[C@@]1(C[C@H](O)c2ccccn2)/C=C/C[C@H](C)[C@@H](C)S(=O)(=O)NC(=O)c2ccc3c(c2)N(C[C@@H]2CC[C@H]21)C[C@@]1(CCCc2cc(Cl)ccc21)CO3 (single isomer, unassigned) [Example 100489]	182	0.88	–
CO[C@@]1(C[C@H](O)c2ccccn2)/C=C/C[C@H](C)[C@@H](C)S(=O)(=O)NC(=O)c2ccc3c(c2)N(C[C@@H]2CC[C@H]21)C[C@@]1(CCCc2cc(Cl)ccc21)CO3 (single isomer, unassigned) [Example 100490]	511	0.292	–
